We go through 11 compounds from patent US10167313B2, “Selective caspase inhibitors and uses thereof” (Genesis Technologies Limited, priority 2008, dated 2019).

One experiment relates to Hela cells. In words: Inhibition of proteolytic cleavage of PARP in staurosporine-treated live Hela cells. In kind it is cell-based. As to conditions: Homo sapiens. Here is the method:
To test the efficacy of caspase-3 inhibitors at the cellular level, the ability of selected compounds to inhibit the proteolytic cleavage of PARP (poly ADP-ribose polymerase) was evaluated in live Hela cells.
Briefly, in this assay Hela cells are seeded in 96 well plates and incubated for 4 hours with staurosporine, a well characterized inducer of apoptosis, alone or together with different concentrations of compound (50, 25, 10 and 3 uM). After formaldehyde-based fixation, the cells are stained with a fluorescein-labeled anti-cleaved PARP antibody (Cell signaling, Cat#: 9547) and counterstained with Hoechst33342 (Invitrogen, Cat#: H3570) to mark all nuclei. Fluorescence images are taken on a Cellomics™ microscope system (Thermo Scientific, Pittsburgh, USA) with the Hoechst stain in the blue channel and the cleaved PARP antibody stain in the green channel. The percentage of cleaved PARP positive cells is determined by calculating the ratio between nuclei with a cleaved PARP antibody staining above a certain threshold and all (Hoechst positive) nuclei. The efficacy of caspase-3 inhibition is determined by calculating the ratio between cleaved PARP positive cells after staurosporine incubation together with compounds and staurosporine incubation without compounds.

A further experiment concerns the target caspase-3 (Homo sapiens (Human), UniProt P42574). In words: Caspase-3 Inhibitor Drug Screening Kit, fluorometric enzymatic assay. It counts as biochemical. To be noted: for IC50: 30-minute incubation at 37° C., AFC liberation.
The next experiment deals with caspase-9 (Homo sapiens (Human), UniProt P55211). In words: Caspase-9 Inhibitor Drug Screening Kit, fluorometric enzymatic assay. As to conditions: read-out: Caspase enzymatic activity, IC50 (uM) Caspase 9; 30-minute incubation at 37° C., AFC liberation.
Chain of caspase-9 (P55211 1-315): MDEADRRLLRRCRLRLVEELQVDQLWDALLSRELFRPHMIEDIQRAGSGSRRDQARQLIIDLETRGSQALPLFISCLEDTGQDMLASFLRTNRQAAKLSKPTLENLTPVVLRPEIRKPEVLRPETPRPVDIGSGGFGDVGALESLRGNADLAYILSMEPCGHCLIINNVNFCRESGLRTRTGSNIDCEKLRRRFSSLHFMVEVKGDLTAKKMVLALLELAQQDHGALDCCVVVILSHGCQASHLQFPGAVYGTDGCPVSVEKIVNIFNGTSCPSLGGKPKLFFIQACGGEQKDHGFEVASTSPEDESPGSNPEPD
Chain of caspase-9 (P55211 331-416): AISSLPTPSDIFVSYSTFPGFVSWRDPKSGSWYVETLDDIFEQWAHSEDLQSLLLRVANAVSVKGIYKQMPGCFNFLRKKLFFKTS
The next experiment deals with caspase-5 (Homo sapiens (Human), UniProt P51878). Briefly: Caspase-5 Inhibitor Drug Screening Kit, fluorometric enzymatic assay. As to conditions: read-out: Caspase enzymatic activity, IC50 (uM) Caspase 5; 30-minute incubation at 37° C., AFC liberation.
Chain of caspase-5 (P51878 137-327): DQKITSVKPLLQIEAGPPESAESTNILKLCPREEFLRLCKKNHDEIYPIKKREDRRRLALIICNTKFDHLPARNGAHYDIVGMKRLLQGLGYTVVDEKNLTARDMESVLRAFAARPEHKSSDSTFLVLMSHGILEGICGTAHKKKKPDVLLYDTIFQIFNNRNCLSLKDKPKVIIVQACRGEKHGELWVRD
Chain of caspase-5 (P51878 347-434): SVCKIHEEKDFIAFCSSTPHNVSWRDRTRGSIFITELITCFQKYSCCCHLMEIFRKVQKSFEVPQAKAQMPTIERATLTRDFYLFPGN
The target in another experiment is caspase-1 (Homo sapiens (Human), UniProt P29466). Briefly: Caspase-1 Inhibitor Drug Screening Kit, fluorometric enzymatic assay. To be noted: read-out: Caspase enzymatic activity, IC50 (uM) Caspase 1; 30-minute incubation at 37° C., AFC liberation.
Chain of caspase-1 (P29466 120-297): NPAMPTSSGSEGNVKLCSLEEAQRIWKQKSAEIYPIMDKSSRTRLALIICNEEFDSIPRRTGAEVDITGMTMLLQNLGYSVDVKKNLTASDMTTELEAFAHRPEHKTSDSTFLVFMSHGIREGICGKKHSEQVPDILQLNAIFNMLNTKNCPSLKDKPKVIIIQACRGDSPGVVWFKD
Chain of caspase-1 (P29466 317-404): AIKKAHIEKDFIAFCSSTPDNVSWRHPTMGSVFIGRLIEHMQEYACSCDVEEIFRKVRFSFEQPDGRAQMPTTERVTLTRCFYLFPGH
The mark [1] stands for this setting: read-out: % inhibition of PARP cleavage at 50 uM compound, staurosporine 4 hours, 50 uM compound.
Setting [2] is: 50 uM, relative to DEVDFMK, read-out: % of inhibition with compound relative to DEVDFMK.

Structures can show the parent of a compound that is named as a salt. Where two headings read alike, the source gives them in different places. Non-standard residues stand in square brackets, D forms with d. Residues, ends and D or L forms follow the SMILES beside them. *: point of attachment. Phg = N[C@H](C(=O)O)c1ccccc1; Cbz = O=C(OCc1ccccc1)*; OtBu = CC(C)(C)O*

Chain of caspase-3 (P42574 29-175): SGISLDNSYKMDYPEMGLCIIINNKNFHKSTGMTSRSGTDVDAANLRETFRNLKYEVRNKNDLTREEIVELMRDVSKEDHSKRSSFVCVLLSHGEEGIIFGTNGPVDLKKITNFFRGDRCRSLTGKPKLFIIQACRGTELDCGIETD
Chain of caspase-3 (P42574 176-277): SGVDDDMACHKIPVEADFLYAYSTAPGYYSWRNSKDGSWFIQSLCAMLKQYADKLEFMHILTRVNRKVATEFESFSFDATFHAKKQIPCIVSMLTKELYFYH
Protocol for caspase-1: (§1) The level of inhibition of caspase-1, -3, -5, -7, -9 activity was determined by comparison of the relative fluorescence intensity in samples with or without the compound.
Protocol for caspase-3: as §1
Protocol for caspase-5: as §1
Protocol for caspase-9: as §1

For the compound `CC(C)[C@H](NC(=O)[C@H](Cc1ccc2ccccc2n1)NC(=O)[C@H](CC(=O)OC(C)(C)C)NC(=O)OCc1ccccc1)C(=O)N[C@H](/C=C/S(=O)(=O)N1CCOCC1)CC(=O)OC(C)(C)C` [Compound 66, Z-Asp(β-tert-Butyl)-Ala(2′-quinolyl)-Val-Asp(β-tert-Butyl)morpholine vinyl sulfone], the inhibition at 50 µM in the experiment with Hela cells (setting [1]) was found to be 25%.
For `CS(=O)(=O)/C=C/[C@@H](N)CC(=O)O.Cc1ccc(S(=O)(=O)O)cc1` [Compound 93, Aspmethyl vinyl sulfone tosyl salt], on caspase-3, the “activity against caspase-3 (in words)” value is recorded as “devoid of any activity” and the IC50 was more than 10 µM.
Take `CC(C)[C@H](NC(=O)[C@H](Cc1c[nH]c2ccccc12)NC(=O)[C@H](CC(=O)O)NC(=O)OCc1ccccc1)C(=O)N[C@H](/C=C/S(C)(=O)=O)CC(=O)O` [Compound 88, Z-Asp-Trp-Val-Aspmethyl vinyl sulfone]: the IC50 at caspase-9 and at caspase-5 was more than 3.33 µM throughout. Further, the inhibition at 50 µM in the experiment with Hela cells (setting [2]) stood at 50%; with Hela cells (setting [1]), 45%.
Turning to `Cc1ccc(S(=O)(=O)N[C@@H](Cc2ccc3ccccc3n2)C(=O)N[C@H](C(=O)N[C@H](/C=C(\Cl)S(C)(=O)=O)CC(=O)O)C(C)C)cc1` [Compound 50, Ts-Ala(2′quinolyl)-Val-Asp- αchlorovinyl methylsulfone], the IC50 at caspase-1 was more than 3.33 µM. On caspase-3, the “activity against caspase-3 (in words)” value was “The same result was observed” and the half-maximal inhibitory concentration (IC50) was more than 3.33 µM.
As for `CC(C)(C)OC(=O)C[C@H](N)/C=C/S(=O)(=O)c1ccccc1` [Compound 37, Asp Vinyl phenyl sulfone tosyl salt], the IC50 at caspase-3 is more than 2 µM.
Take `CC(C)[C@H](NC(=O)[C@@H](NC(=O)[C@H](CC(=O)O)NC(=O)OCc1ccccc1)C1Cc2ccccc2C1)C(=O)N[C@H](/C=C/S(=O)(=O)C(C)C)CC(=O)O` [Compound 68, Z-Asp-Indanylglycine-Val-Aspisopropyl vinyl sulfone]: the IC50 at caspase-9, at caspase-5 and on caspase-1 was more than 3.33 µM in each case. Moreover, the inhibition at 50 µM with Hela cells (setting [2]) worked out at 50%; in the experiment with Hela cells (setting [1]) it was 30%.
As to `COC(=O)CC[C@H](NC(=O)[C@H](CC(=O)OC)NC(=O)OCc1ccccc1)C(=O)N[C@H](C(=O)N[C@@H](CC(=O)OC)C(=O)CF)C(C)C` [DEVD-fmk, reference compound], the inhibition at 50 µM with Hela cells (setting [1]) was determined as 85%. The same compound registered an IC50 with Hela cells (staurosporine) of 20 µM.
As for `CC(C)[C@H](NC(=O)[C@@H](NC(=O)[C@H](CC(=O)OC(C)(C)C)NC(=O)OCc1ccccc1)c1ccccc1)C(=O)O` [Compound 16, Z-Asp(β-tert-Butyl)-Phg-Val-OH.] (Cbz-Asp(OtBu)-[Phg]-Val-OH), at caspase-3, the “activity against caspase-3 (in words)” value is “devoid of any activity” and the IC50 was more than 2 µM.
For the compound `CC(C)(C)OC(=O)C[C@@H](/C=C/S(=O)(=O)c1ccccc1)NC(=O)OC(C)(C)C` [Compound 36, Boc-Asp-vinyl phenyl sulfone], the IC50 at caspase-3 is more than 2 µM.
For the compound `CC(C)(C)OC(=O)C[C@H](N)/C=C/S(C)(=O)=O.Cc1ccc(S(=O)(=O)O)cc1` (stereo in doubt) [Compound 33, Asp(β-tert-butyl)methyl vinyl sulfone tosyl salt], on caspase-3, the “activity against caspase-3 (in words)” value is “devoid of any activity” and the half-inhibitory concentration (IC50) was more than 10 µM.
Regarding `CC(C)[C@H](NC(=O)[C@H](Cc1ccccn1)NC(=O)[C@H](CC(=O)O)NC(=O)OCc1ccccc1)C(=O)N[C@H](/C=C/S(=O)(=O)c1ccccc1)CC(=O)O` [Compound 85, Z-Asp-Ala(2′-pyridyl)-Val-Aspphenyl vinylsulfone], the 50% inhibitory concentration (IC50) on caspase-9, at caspase-5 and on caspase-1 was more than 3.33 µM throughout. The inhibition at 50 µM with Hela cells (setting [1]) worked out at 40%.

The inhibition is the share of the control response that was lost under treatment. Broadly, the IC50 is the concentration that inhibits the measured activity by half.
